Measurements from patent publication US12728120B2, “Prevention or treatment of brain disease and adverse effects of cholinesterase inhibitors” (DR. NOAH BIOTECH INC., priority 2021, dated 2026).
Where a name gives a salt, the structure may show the parent alone.

Key:
PSD-95 = PSD-95 expression (western blot) in primary cultured neurons; assay type: cell-based, mice; conditions: mouse primary neuro-glia culture, 4 days treatment, β-actin normalized; FIG. 14B
Procedure: (§1) To evaluate the synaptic plasticity, primary neuro-glia culture was prepared from cortices of embryonic day 16 C57/BL6 mice. Cells were collected by mechanical dissection and chemical dissociation with trypsin and DNase treatment and cultured in Neurobasal (NB) and MEM media supplemented with 1% B-27, 2 mM L-glutamine, 5% Fetal Bovine Serum, 5% Horse Serum, 1×MEM-NEAA (non-essential amino acids), and 1% Penicillin-Streptomycin (PS). Cells were cultured in Poly-D-Lysine+Laminin-coated 6-well plates at 2×10^6 cells/well in growth media. After 3 days in vitro (DIV 3), media was changed to NB media supplemented with 2% B-27, 2 mM L-glutamine, and 1% PS. […] Protein was resolved by 8% SDS-PAGE electrophoresis, transferred to polyvinylidene difluoride membranes and blocked with 5% non-fat dry milk for 1 hour at RT. Membrane was immunoblotted using following antibodies; primary antibody: PSD-95 (Abcam, ab18258, 1:2,000), phospho-CREB (Millipore, #06-519, 1:2,000), β-actin (Cell signaling, #3700, 1:3,000), and secondary antibody:HRP-conjugated anti-mouse IgG (AbFrontier, LF-SA8001, 1:5,000), HRP-conjugated anti-rabbit IgG (AbFrontier, LF-SA8002, 1:5,000). Signal was visualized by chemiluminescence methods using ECL solution and imaged using ImageQuant LAS 500 system. […]

neuronal cells (SH-SY5Y) = assay: ROS production (DCF-DA) in H2O2-treated SH-SY5Y cells; assay type: cell-based; conditions: 100 μM H2O2 24 hours, DONE alone 5 uM, NAC alone 5 uM, NDC = DONE 2.5 uM + NAC 2.5 uM, FIG. 3
Procedure: SH-SY5Y cells were plated in 96 well plates at 2×10^5 cells/well in DMEM supplemented with 10% fetal bovine serum (FBS; YOUNG IN, US-FBS-500) and 1% penicillin-streptomycin (P-S; Gibco, 15070063). Six hours after seeding, SH-SY5Y cells were treated with 100 μM H2O2 for 24 hours (Sigma, #323381) followed by incubation with DONE alone, NAC alone, and combination of DONE and NAC. After incubation, ROS activity in the cell was measured by adding DCF-DA (Thermo, #D399) containing media. Absorbance was measured using a Synergy HTX Multi-Mode reader (Biotek) with 465 nm excitation and 540 nm emission. Measured fluorescence was normalized to control as follows: (drug-treated group OD−DCF-DA alone O.D)/(control O.D−DCF alone O.D)*100.

pCREB = pCREB expression (western blot) in primary cultured neurons; assay type: cell-based, mice; conditions: mouse primary neuro-glia culture, 4 days treatment, β-actin normalized; FIG. 14C
Procedure: as §1

[1] = test system: cerebral infarction-reperfusion model in Sprague-Dawley rats; assay: Rotarod test in MCAO-reperfusion stroke model; assay type: in vivo; conditions: for Rotarod score (fall latency normalized to day 1), mean value: I.V. daily, FIG. 15
Procedure: The Rotarod test was performed on the 1, 3, 7, 14, and 21 days after 45 minutes-MCAO (middle cerebral artery occlusion)-reperfusion modelling to induced ischemia (Brain Stroke). […] The animal was carefully placed on a rotating rod (JD-A-07RA5, BS Technolab Inc., Korea) and the time (second) that animal was fallen was measured. The speed of rotating rod was increased from 4 rpm to 40 rpm for 300 second. […] For rotarod latency test, Nested one-way ANOVA and Two-way ANOVA was used to analyze significance between the groups on each day. Statistical analysis was performed using Prism 9 (GraphPad Software Inc., San Diego, CA, USA) and statistical significance was set at a P-value of less than 0.05.

microglia cells (BV2) = assay: NO assay (Griess reagent) in LPS-treated BV2 microglial cells; assay type: cell-based; conditions: donepezil HCl alone, antioxidant alone or combination, FIG. 8
Procedure: (§2) Briefly, BV2 microglial cells were plated in 96-well plates at 2×10^5 cells/well in DMEM high glucose medium (Welgene, LM001-05) supplemented with 10% fetal bovine serum (FBS; YOUNG IN, US-FBS-500) and 1% penicillin-streptomycin (P-S; Gibco, 15070063).
After incubation, NO levels were quantified from half of the cell media using a Griess reagent assay kit (Promega, G2930). Colorimetric changes in the media and Griess reagent mixture were measured using a Synergy HTX Multi-Mode reader (Biotek) at 540 nm. All data were analyzed using the GraphPad Prism 9 software. Statistical significance was assessed using a one-way ANOVA or two-way ANOVA followed by Dunnett's post-hoc analysis unless otherwise noted. All data are presented as the mean±SEM, and significance was set at P<0.05. […] (*P<0.05, **P<0.01, ***P<0.001, ****P<0.0001, one-way ANOVA).

IL-6 = IL-6 ELISA in LPS-treated BV2 microglial cells; assay type: cell-based, mouse; conditions: BV2, 1 μg/ml LPS, 18 hours; FIG. 4
Procedure: as §2

ERK pathway = assay: pERK expression in brain (western blot), MCAO-reperfusion model; assay type: in vivo, Sprague-Dawley rats
Procedure: (§3) At 21 days after 45-minutes-MCAO-reperfusion modeling, brains were collected to perform a western blot assay. Brains were homogenized in lysate buffer with protease inhibitor cocktail on ice. Each sample was centrifuged at 13,000 rpm and 4° C. for 30 minutes and the supernatant was used for further experiments. Protein concentration was measured using DC (Bio-rad, #5000112) protein assay. Samples were loaded using the SDS-PAGE system (Bio-rad, #1658004 and #1645052) and transferred onto nitrocellulose membranes (Bio-rad, #17001917 and #1704272). The membranes were blocked for 1 hour at room temperature with Tris-buffered saline-Tween20 (TBS-T) containing 5% skim milk and then incubated with pAKT antibody (Cell signaling, #4060), AKT primary antibody (Santacruz, SC-81434), EPO primary antibody (SCBT, SC-5290), ERK (CST, #9102), pERK (CST, #9101) and GAPDH (Bioworld, #MBOO1H) in 5% skim milk overnight at 4° C. Next day, the membranes were washed 3 times in TBS-T for 5 minutes, incubated with horseradish peroxidase-conjugated (HRP-conjugated) secondary antibody or fluorescence conjugated secondary antibody for 1-2 hours, and then washed 3 times in TBS-T for 5 minutes again. After final wash, the membranes were developed for chemiluminescence or fluorescence system. The signals of chemiluminescence or fluorescence were acquired and quantified by using ECL solution (Bio-rad, #1705062), iBright 1500 (Invitrogen, #CL1500), and Odyssey CLx (LI-COR, #CLX-2383) imaging system.

PI3K-AKT pathway = assay: pAKT expression in brain (western blot), MCAO-reperfusion model; assay type: in vivo, Sprague-Dawley rats
Procedure: as §3

[2] = test system: ReN VM-immortalized cells, human neural progenitor cell line; assay: HB9 motor neuron marker expression in neural progenitor cells (differentiation); assay type: cell-based; conditions: alone or combined, 3 days
Procedure: ReN VM-immortalized cells, human neural progenitor cell line, were used (EMD Millipore, SCC008). These neural progenitor cells can differentiate into motor neurons and glial cells. The degree of differentiation of neural progenitor cells into motor neurons was determined by analysing the level of HB9, a specific motor neuron marker. ReN VM cells were cultured on laminin (Corning, 354232)-coated 75T Flask in the growth medium, which is DMEM/F12 (Welgene, #LM002-08) supplemented with 20 ng/ml basic fibroblast growth factor (bFGF; Gibco, 15750-060), 20 ng/ml epidermal growth factor (EGF; Sigma, E9644), serum-free B27 (Gibco, 17504-044), 10 KU heparin (Sigma, H3393), and 1% gentamicin (Gibco, 17504-044). Cells were plated in 96-well plates at 7000 cells/well in the growth media in a 37° C./5% CO2 incubator for 3 days. […] Immunostaining was performed against HB9, a specific motor neuronal marker, to assess the population of motor neurons. Briefly, drug-treated ReN VM cells were fixed in 10% formalin solution for 20 minutes and permeabilized in 0.1% TritonX-100. […] Fluorescence intensity levels were measured using an Odyssey® DLx Infrared Imaging System (LI-COR, CLS-2383). All data were analyzed using the GraphPad Prism 9 software. Statistical significance was assessed using a one-way ANOVA or two-way ANOVA followed by Dunnett's post-hoc analysis unless otherwise noted. […]

EPO = EPO expression in brain (western blot), MCAO-reperfusion model; assay type: in vivo, Sprague-Dawley rats; conditions: 21 days after MCAO
Procedure: as §3, with “Brains” for “At 21 days after 45-minutes-MCAO-reperfusion modeling, brains were collected to perform a western blot assay. Brains”, “Each sample was centrifuged at 13,000 rpm and 4° C. for 30 minutes and the supernatant was used for further experiments.” left out

neural progenitor cells = assay: Number of viable cells (cytotoxicity) in neural progenitor cells; conditions: with donepezil, NAC or their combination; FIG. 13B
[3] = 1 mpk donepezil HCl or 120 mpk NAC used alone, FIG. 17
[4] = brain, 21 days after MCAO, 1 mpk donepezil HCl, 120 mpk NAC, alone or combined

How did the “PSD-95 expression, mean value normalized to untreated control (CTL 1.0)” value (PSD-95) turn out when `COc1cc2c(cc1OC)C(=O)C(CC1CCN(Cc3ccccc3)CC1)C2` (stereo not shown) [Donepezil-HCl, donepezil] was run?
Its value is 1.20.

And the “ROS, mean value normalized to control (CTL 100%)” value (neuronal cells (SH-SY5Y))?
Its value is 76.52%.

And the “pCREB expression, mean value normalized to untreated control (CTL 1.0)” value (pCREB)?
Its value is 0.92.

And the “Rotarod score normalized to VEH (100%)” value ([1]; day 3 after MCAO)?
The value was 93.92%.

And the “Rotarod score (fall latency normalized to day 1), mean value” ([1]; day 3 after MCAO)?
Its value is 15.77.

What about the “Rotarod score (fall latency normalized to day 1), mean value” ([1]; day 7 after MCAO) of the same compound?
Its value is 30.61.

What about the “Rotarod score normalized to VEH (100%)” value ([1]; day 14 after MCAO) of the same compound?
The value was 81.08%.

And the “Rotarod score (fall latency normalized to day 1), mean value” ([1]; day 14 after MCAO)?
Its value is 39.30.

What about the “Rotarod score normalized to VEH (100%)” value ([1]; day 21 after MCAO) of the same compound?
Its value is 77.68%.

What about the “Rotarod score (fall latency normalized to day 1), mean value” ([1]; day 21 after MCAO) of the same compound?
The value was 49.53.

For `COc1ccc([C@H]2OC[C@H]3[C@@H]2CO[C@H]3c2ccc(O[C@@H]3O[C@H](CO)[C@@H](O)[C@H](O)[C@H]3O)c(OC)c2)cc1OC` [Forsythin], which “NO, mean value relative to LPS (100%)” value (microglia cells (BV2)) is on record?
Its value is 89.97%.

How did the “PSD-95 expression, mean value normalized to untreated control (CTL 1.0)” value (PSD-95) turn out when `CC(=O)N[C@@H](CS)C(=O)O` [NAC, N-acetylcysteine] was run?
Its value is 1.43.

What about the “IL-6, mean value relative to LPS (100%)” value (IL-6) of the same compound?
Its value is 95.48%.

And the “ROS, mean value normalized to control (CTL 100%)” value (neuronal cells (SH-SY5Y))?
The value was 88.93%.

What about the “activation of the ERK pathway” value (ERK pathway; [3]) of the same compound?
Its value is “did not activate”.

And the “pERK expression normalized to VEH (100%)” value (ERK pathway; [4])?
Its value is 189.77%.

And the “pERK expression, mean value” (ERK pathway; brain, 21 days after MCAO, 1 mpk donepezil HCl, 120 mpk NAC, alone or combined, FIG. 17B)?
Its value is 99.50.

What about the “activation of the PI3K-AKT pathway” value (PI3K-AKT pathway; [3]) of the same compound?
Its value is “did not activate”.

What about the “pAKT expression normalized to VEH (100%)” value (PI3K-AKT pathway; [4]) of the same compound?
The value was 55.88%.

What about the “pAKT expression, mean value” (PI3K-AKT pathway; brain, 21 days after MCAO, 1 mpk donepezil HCl, 120 mpk NAC, alone or combined, FIG. 17A) of the same compound?
Its value is 44.23.

And the “pCREB expression, mean value normalized to untreated control (CTL 1.0)” value (pCREB)?
Its value is 1.13.

What about the “HB9 expression level, mean value relative to CTL (100%)” value ([2]; donepezil 0.1 μM, NAC 12 μM, FIG. 9A) of the same compound?
Its value is 116.9%.

And the “HB9 expression level, mean value relative to CTL (100%)” value ([2]; donepezil 1 μM, NAC 120 μM, FIG. 9B)?
The value was 125.36%.

And the “EPO expression normalized to VEH (100%)” value (EPO)?
The value was 151.66%.

And the “EPO expression, mean value” (EPO; FIG. 18)?
Its value is 172.43.

And the “Rotarod score normalized to VEH (100%)” value ([1]; day 3 after MCAO)?
The value was 139.30%.

What about the “Rotarod score (fall latency normalized to day 1), mean value” ([1]; day 3 after MCAO) of the same compound?
Its value is 23.39.

What about the “Rotarod score (fall latency normalized to day 1), mean value” ([1]; day 7 after MCAO) of the same compound?
The value was 38.01.

And the “Rotarod score normalized to VEH (100%)” value ([1]; day 14 after MCAO)?
The value was 83.86%.

And the “Rotarod score (fall latency normalized to day 1), mean value” ([1]; day 14 after MCAO)?
Its value is 40.65.

What about the “Rotarod score normalized to VEH (100%)” value ([1]; day 21 after MCAO) of the same compound?
The value was 44.96%.

What about the “Rotarod score (fall latency normalized to day 1), mean value” ([1]; day 21 after MCAO) of the same compound?
Its value is 28.67.

`O=C(O)CCCCC1CCSS1` (stereo not shown) [Thioctic acid] was tested. Which “NO, mean value relative to LPS (100%)” value (microglia cells (BV2)) did it give?
The value was 68.45%.

For `CO[C@H]1C[C@@H]2CC[C@@H](C)[C@@](O)(O2)C(=O)C(=O)N2CCCC[C@H]2C(=O)O[C@H]([C@H](C)C[C@@H]2CC[C@@H](O)[C@H](OC)C2)CC(=O)[C@H](C)/C=C(\C)[C@@H](O)[C@@H](OC)C(=O)[C@H](C)C[C@H](C)/C=C/C=C/C=C/1C` [rapamycin], which “cytotoxicity on addition of rapamycin” value (neural progenitor cells) is on record?
Its value is “did not induce cytotoxicity”.
